ChEMBL document CHEMBL4387741, “Optimization of novel reversible Bruton's tyrosine kinase inhibitors identified using Tethering-fragment-based screens” (Bioorg Med Chem, 2019)

Assays:
[1] = target: Epithelial discoidin domain-containing receptor 1 (Homo sapiens) (UniProt Q08345); assay: Inhibition of wild-type human partial length DDR1 (R565 to V876 residues) expressed in bacterial expression system at 1 uM by Kinomescan method relative to control
[2] = target: Mitogen-activated protein kinase 1 (Homo sapiens) (UniProt P28482); assay: Inhibition of wild-type human full length ERK2 (M1 to S360 residues) expressed in bacterial expression system at 1 uM by Kinomescan method relative to control
[3] = target: Serine/threonine-protein kinase LATS1 (Homo sapiens) (UniProt O95835); assay: Inhibition of wild-type human partial length LATS1 (Q678 to V1130 residues) expressed in bacterial expression system at 1 uM by Kinomescan method relative to control
[4] = target: Fibroblast growth factor receptor 3 (Homo sapiens) (UniProt P22607); assay: Inhibition of wild-type human partial length FGFR3 (R442 to S771 residues) expressed in bacterial expression system at 1 uM by Kinomescan method relative to control
[5] = target: Serine/threonine-protein kinase/endoribonuclease IRE1 (Homo sapiens) (UniProt O75460); assay: Inhibition of wild-type human partial length ERN1 (S551 to E852 residues) expressed in mammalian expression system at 1 uM by Kinomescan method relative to control
[6] = target: Serine/threonine-protein kinase Nek1 (Homo sapiens) (UniProt Q96PY6); assay: Inhibition of wild-type human partial length NEK1 (M1 to K278 residues) expressed in bacterial expression system at 1 uM by Kinomescan method relative to control
[7] = test system: Receptor-type tyrosine-protein kinase FLT3 (Homo sapiens), P36888 [N841I]; assay: Inhibition of human partial length FLT3 N841I mutant (V592 to Y969 residues) expressed in bacterial expression system at 1 uM by Kinomescan method relative to control
[8] = test system: Proto-oncogene tyrosine-protein kinase receptor Ret (Homo sapiens), P07949 [V804L]; assay: Inhibition of human partial length RET V804L mutant (E713 to D1014 residues) expressed in bacterial expression system at 1 uM by Kinomescan method relative to control
Chain of Proto-oncogene tyrosine-protein kinase receptor Ret (Homo sapiens), P07949 [V804L] (P07949 whole entry V804L, the tested form may be a part): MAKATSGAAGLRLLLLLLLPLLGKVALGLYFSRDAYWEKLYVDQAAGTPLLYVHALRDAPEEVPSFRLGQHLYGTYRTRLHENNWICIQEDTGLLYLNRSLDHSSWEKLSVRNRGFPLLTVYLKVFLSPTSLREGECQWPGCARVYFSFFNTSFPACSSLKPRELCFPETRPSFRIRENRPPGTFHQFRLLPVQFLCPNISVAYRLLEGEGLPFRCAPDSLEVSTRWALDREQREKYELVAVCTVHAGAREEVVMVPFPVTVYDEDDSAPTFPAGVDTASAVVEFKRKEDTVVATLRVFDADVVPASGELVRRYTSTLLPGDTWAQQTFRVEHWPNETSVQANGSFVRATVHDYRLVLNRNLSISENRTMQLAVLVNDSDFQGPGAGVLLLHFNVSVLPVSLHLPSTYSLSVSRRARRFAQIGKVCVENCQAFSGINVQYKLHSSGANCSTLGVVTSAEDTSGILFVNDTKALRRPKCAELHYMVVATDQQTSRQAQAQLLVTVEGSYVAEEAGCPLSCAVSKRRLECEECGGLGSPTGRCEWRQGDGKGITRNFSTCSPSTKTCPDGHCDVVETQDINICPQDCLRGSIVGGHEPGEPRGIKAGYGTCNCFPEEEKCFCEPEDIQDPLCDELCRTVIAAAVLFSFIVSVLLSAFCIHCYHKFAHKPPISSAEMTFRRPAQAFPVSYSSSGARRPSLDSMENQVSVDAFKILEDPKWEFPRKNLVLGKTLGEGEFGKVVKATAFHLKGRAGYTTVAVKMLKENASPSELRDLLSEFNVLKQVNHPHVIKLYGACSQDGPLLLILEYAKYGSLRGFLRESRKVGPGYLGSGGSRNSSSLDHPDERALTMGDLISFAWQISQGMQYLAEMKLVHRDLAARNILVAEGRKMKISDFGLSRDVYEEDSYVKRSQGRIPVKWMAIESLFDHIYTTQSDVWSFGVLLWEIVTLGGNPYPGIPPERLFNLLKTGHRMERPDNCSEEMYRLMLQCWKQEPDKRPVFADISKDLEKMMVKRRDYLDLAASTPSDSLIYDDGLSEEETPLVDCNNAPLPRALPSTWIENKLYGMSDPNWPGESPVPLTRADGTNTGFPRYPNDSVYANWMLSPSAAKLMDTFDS

[9] = target: Epidermal growth factor receptor (Homo sapiens) (UniProt P00533); assay: Inhibition of wild-type human partial length EGFR (R669 to V1011 residues) expressed in bacterial expression system at 1 uM by Kinomescan method relative to control
[10] = target: Cyclin-dependent kinase 11A (Homo sapiens) (UniProt Q9UQ88); assay: Inhibition of wild-type human partial length CDC2L2 (D391 to K730 residues) expressed in bacterial expression system at 1 uM by Kinomescan method relative to control
[11] = target: Cyclin-dependent kinase 3 (Homo sapiens) (UniProt Q00526); assay: Inhibition of wild-type human full length CDK3 (M1 to H305 residues) expressed in bacterial expression system at 1 uM by Kinomescan method relative to control
Chain of Cyclin-dependent kinase 3 (Homo sapiens) (Q00526 whole entry, looked up, the tested form may be a part): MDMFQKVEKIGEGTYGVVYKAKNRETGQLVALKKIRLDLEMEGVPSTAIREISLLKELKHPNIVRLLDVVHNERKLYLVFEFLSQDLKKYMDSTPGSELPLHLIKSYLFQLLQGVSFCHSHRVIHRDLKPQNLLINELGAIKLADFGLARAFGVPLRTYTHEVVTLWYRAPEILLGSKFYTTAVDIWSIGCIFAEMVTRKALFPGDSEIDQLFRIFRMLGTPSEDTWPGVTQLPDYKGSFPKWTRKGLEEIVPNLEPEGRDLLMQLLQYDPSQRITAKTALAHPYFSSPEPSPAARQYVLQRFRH

[12] = target: Tyrosine-protein kinase Fer (Homo sapiens) (UniProt P16591); assay: Inhibition of wild-type human partial length FER (S542 to T822 residues) expressed in bacterial expression system at 1 uM by Kinomescan method relative to control
[13] = test system: Proto-oncogene tyrosine-protein kinase receptor Ret (Homo sapiens), P07949 [V804M]; assay: Inhibition of human partial length RET V804M mutant (E713 to D1014 residues) expressed in bacterial expression system at 1 uM by Kinomescan method relative to control
Chain of Proto-oncogene tyrosine-protein kinase receptor Ret (Homo sapiens), P07949 [V804M] (P07949 whole entry V804M, the tested form may be a part): as the sequence (P07949 whole entry V804L, the tested form may be a part) above, with L804M counted along it

[14] = target: High affinity nerve growth factor receptor (Homo sapiens) (UniProt P04629); assay: Inhibition of wild-type human partial length TRKA (G475 to G790 residues) expressed in mammalian expression system at 1 uM by Kinomescan method relative to control
Chain of High affinity nerve growth factor receptor (Homo sapiens) (P04629 33-796 limits assumed): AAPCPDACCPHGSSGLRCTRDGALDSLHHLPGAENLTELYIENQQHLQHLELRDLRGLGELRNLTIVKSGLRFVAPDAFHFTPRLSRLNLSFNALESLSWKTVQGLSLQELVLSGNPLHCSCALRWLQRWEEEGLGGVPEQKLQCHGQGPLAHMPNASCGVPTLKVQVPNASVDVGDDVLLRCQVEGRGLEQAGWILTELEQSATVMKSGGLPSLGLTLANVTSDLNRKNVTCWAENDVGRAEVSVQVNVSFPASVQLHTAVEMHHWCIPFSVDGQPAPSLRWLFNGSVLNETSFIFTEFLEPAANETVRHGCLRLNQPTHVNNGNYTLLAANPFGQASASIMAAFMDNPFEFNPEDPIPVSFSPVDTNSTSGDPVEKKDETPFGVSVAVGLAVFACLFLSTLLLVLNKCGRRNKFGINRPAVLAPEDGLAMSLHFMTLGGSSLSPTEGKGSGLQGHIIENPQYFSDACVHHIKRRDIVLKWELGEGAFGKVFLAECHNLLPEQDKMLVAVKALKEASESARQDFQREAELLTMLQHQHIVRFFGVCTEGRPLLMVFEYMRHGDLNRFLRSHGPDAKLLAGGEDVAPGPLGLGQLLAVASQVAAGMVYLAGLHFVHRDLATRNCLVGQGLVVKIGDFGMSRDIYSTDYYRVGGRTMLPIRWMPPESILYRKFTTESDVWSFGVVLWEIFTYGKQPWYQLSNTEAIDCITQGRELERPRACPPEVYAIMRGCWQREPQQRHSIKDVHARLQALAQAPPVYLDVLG

[15] = test system: Epidermal growth factor receptor (Homo sapiens), P00533 [L861Q]; assay: Inhibition of human partial length EGFR L861Q mutant (R669 to V1011 residues) expressed in bacterial expression system at 1 uM by Kinomescan method relative to control
[16] = Plasma clearance in Sprague-Dawley rat at 1 mg/kg, iv; format: ADME, organism-based
[17] = target: Serine/threonine-protein kinase MARK1 (Homo sapiens) (UniProt Q9P0L2); assay: Inhibition of wild-type human partial length MARK1 (Q30 to T341 residues) expressed in bacterial expression system at 1 uM by Kinomescan method relative to control
Chain of Serine/threonine-protein kinase MARK1 (Homo sapiens) (Q9P0L2 whole entry, looked up, the tested form may be a part): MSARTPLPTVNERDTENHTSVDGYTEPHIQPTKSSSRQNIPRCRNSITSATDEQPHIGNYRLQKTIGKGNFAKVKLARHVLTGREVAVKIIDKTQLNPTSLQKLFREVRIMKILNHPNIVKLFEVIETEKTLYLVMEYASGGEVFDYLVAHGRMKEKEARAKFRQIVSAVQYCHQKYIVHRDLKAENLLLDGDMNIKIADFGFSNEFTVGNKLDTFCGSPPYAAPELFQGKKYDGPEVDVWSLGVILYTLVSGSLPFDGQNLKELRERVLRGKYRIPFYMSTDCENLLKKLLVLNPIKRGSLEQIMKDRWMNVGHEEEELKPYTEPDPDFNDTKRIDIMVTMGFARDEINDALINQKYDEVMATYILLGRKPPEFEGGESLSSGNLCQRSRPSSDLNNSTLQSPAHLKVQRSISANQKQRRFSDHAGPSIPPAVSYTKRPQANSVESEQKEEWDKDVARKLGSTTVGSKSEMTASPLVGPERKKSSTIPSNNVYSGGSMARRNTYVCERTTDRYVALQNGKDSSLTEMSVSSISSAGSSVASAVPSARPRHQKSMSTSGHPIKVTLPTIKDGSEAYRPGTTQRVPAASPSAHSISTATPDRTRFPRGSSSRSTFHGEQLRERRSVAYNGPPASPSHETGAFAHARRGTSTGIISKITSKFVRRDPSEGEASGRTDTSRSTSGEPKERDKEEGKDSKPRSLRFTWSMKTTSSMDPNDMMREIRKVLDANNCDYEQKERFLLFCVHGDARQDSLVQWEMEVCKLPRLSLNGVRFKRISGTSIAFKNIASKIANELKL

[18] = target: Ephrin type-A receptor 1 (Homo sapiens) (UniProt P21709); assay: Inhibition of wild-type human partial length EPHA1 (V588 to I913 residues) expressed in bacterial expression system at 10 uM by Kinomescan method relative to control
[19] = test system: ALK tyrosine kinase receptor (Homo sapiens), Q9UM73 [L1196M]; assay: Inhibition of wild-type human partial length ALK L1196M mutant (I1088 to E1409 residues) expressed in mammalian expression system at 10 uM by Kinomescan method relative to control
[20] = target: SRSF protein kinase 3 (Homo sapiens) (UniProt Q9UPE1); assay: Inhibition of wild-type human partial length SRPK3 (P41 to P567 residues) expressed in bacterial expression system at 10 uM by Kinomescan method relative to control
[21] = target: Mitogen-activated protein kinase kinase kinase kinase 2 (Homo sapiens) (UniProt Q12851); assay: Inhibition of wild-type human partial length MAP4K2 (M1 to G318 residues) expressed in mammalian expression system at 10 uM by Kinomescan method relative to control
[22] = test system: Phosphatidylinositol 4,5-bisphosphate 3-kinase catalytic subunit alpha isoform (Homo sapiens), P42336 [C420R]; assay: Inhibition of human partial length PIK3CA C420R mutant (R108 to N1068 residues) expressed in mammalian expression system at 10 uM by Kinomescan method relative to control
Chain of Phosphatidylinositol 4,5-bisphosphate 3-kinase catalytic subunit alpha isoform (Homo sapiens), P42336 [C420R] (P42336 whole entry C420R, the tested form may be a part, canonical isoform): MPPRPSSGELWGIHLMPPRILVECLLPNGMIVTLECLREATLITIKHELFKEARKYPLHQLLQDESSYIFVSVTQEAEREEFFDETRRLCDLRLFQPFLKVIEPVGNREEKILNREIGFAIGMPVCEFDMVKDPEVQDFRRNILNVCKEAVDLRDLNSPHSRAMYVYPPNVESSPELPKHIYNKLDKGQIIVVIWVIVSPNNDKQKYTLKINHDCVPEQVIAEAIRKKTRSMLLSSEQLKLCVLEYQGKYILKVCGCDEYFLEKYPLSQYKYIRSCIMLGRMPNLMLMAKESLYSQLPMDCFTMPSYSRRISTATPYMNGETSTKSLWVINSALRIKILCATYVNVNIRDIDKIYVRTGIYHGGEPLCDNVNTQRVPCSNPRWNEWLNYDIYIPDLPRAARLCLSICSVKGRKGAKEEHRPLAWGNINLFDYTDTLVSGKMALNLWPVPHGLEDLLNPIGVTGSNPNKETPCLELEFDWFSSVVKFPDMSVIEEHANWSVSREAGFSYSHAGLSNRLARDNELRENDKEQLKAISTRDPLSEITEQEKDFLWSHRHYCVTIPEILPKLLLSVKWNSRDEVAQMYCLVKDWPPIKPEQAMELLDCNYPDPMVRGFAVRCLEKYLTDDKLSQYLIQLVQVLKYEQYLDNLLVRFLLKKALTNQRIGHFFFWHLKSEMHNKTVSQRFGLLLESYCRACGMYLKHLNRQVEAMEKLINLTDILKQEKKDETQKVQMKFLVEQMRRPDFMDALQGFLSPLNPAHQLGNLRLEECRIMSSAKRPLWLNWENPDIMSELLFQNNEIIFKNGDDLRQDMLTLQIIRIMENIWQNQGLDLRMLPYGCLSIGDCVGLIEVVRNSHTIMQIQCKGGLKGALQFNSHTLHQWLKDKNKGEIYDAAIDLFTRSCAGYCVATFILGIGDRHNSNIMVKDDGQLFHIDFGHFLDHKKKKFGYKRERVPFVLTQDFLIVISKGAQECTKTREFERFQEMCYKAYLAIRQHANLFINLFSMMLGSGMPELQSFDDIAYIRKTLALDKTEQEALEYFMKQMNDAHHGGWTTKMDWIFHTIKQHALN

[23] = target: Serine/threonine-protein kinase 26 (Homo sapiens) (UniProt Q9P289); assay: Inhibition of wild-type human full length MST4 (M1 to P416 residues) expressed in mammalian expression system at 10 uM by Kinomescan method relative to control
[24] = target: Serine/threonine-protein kinase DCLK1 (Homo sapiens) (UniProt O15075); assay: Inhibition of wild-type human partial length DCAMKL1 (L270 to A662 residues) expressed in mammalian expression system at 10 uM by Kinomescan method relative to control
Chain of Serine/threonine-protein kinase DCLK1 (Homo sapiens) (O15075 whole entry, the tested form may be a part): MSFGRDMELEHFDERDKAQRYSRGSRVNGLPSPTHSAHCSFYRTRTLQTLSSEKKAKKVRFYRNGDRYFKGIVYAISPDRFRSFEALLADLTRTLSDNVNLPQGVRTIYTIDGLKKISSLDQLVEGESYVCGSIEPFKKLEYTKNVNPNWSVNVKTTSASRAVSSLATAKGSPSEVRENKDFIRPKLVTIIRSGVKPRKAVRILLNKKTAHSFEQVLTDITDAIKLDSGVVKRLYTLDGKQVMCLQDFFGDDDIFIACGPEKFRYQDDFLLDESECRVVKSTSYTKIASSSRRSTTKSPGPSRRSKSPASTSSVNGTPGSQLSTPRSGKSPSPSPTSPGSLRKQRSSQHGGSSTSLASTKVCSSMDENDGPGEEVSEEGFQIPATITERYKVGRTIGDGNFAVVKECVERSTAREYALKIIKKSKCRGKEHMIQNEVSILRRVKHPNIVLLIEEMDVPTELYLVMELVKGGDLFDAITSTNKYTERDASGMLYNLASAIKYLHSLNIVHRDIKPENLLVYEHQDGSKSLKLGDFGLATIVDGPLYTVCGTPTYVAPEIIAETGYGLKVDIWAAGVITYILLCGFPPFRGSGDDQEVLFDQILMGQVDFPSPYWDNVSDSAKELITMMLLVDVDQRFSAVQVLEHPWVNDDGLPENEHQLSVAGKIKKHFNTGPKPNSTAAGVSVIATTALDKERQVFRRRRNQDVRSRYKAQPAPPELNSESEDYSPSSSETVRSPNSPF

[25] = test system: Epidermal growth factor receptor (Homo sapiens), P00533 [UNDEFINED MUTATION]; assay: Inhibition of human partial length EGFR S752-I759del mutant expressed in bacterial expression system at 10 uM by Kinomescan method relative to control
[26] = target: Ephrin type-A receptor 4 (Homo sapiens) (UniProt P54764); assay: Inhibition of wild-type human partial length EPHA4 (T601 to R897 residues) expressed in bacterial expression system at 10 uM by Kinomescan method relative to control
[27] = target: Misshapen-like kinase 1 (Homo sapiens) (UniProt Q8N4C8); assay: Inhibition of wild-type human partial length MINK (M1 to K312 residues) expressed in mammalian expression system at 10 uM by Kinomescan method relative to control

## O=C(Nc1cccc([C@@H]2CN(c3ncnc4[nH]ccc34)CCN2CCO)c1)Nc1c(F)cccc1N1CCCC1
[1]
  inhibition: 82%
[2]
  inhibition: 90%
[3]
  inhibition: 52%
[4]
  inhibition: 83%
[5]
  inhibition: 56%
[6]
  inhibition: 100%
[7]
  inhibition: 28%
[8]
  inhibition: 0.2%
[9]
  inhibition: 100%
[10]
  inhibition: 96%
[11]
  inhibition: 88%
[12]
  inhibition: 82%
[13]
  inhibition: 0.95%
[14]
  inhibition: 56%
[15]
  inhibition: 81%
[16]
  clearance: 6.2 mL/min/kg
[17]
  inhibition: 97%

## O=C(Nc1cccc([C@H]2CCCN(c3ncnc4[nH]ccc34)C2)c1)Nc1ccccc1N1CCCC1
[18]
  inhibition: 89%
[19]
  inhibition: 63%
[20]
  inhibition: 9%
[21]
  inhibition: 61%
[22]
  inhibition: 85%
[23]
  inhibition: 62%
[24]
  inhibition: 52%
[25]
  inhibition: 78%
[26]
  inhibition: 98%
[27]
  inhibition: 37%
